In patent publication US10448639B2, “Fungicidal pyrazoles” (FMC CORPORATION, priority 2009, dated 2019):

Legend:
[1] = tested on: Puccinia recondita f. sp. tritici; experiment: Test I: wheat leaf rust, preventive spray on wheat seedlings, visual disease rating; conditions: for pest or weed control at 200 µg/mL: 192 h, read-out: Test I rating (% disease control)
[2] = tested on: Botrytis cinerea; experiment: Test B: tomato Botrytis, preventive spray on tomato seedlings, visual disease rating; conditions: for pest or weed control at 200 µg/mL: Botrytis cinerea, in Solanum lycopersicum, 120 h, read-out: Test B rating (% disease control)
[3] = tested on: Alternaria solani; experiment: Test C: tomato early blight, preventive spray on tomato seedlings, visual disease rating; conditions: for pest or weed control at 200 µg/mL: Alternaria solani, in Solanum lycopersicum, 168 h, read-out: Test C rating (% disease control)
[4] = tested on: Septoria tritici; experiment: Test G: wheat leaf blotch, preventive spray on wheat seedlings, visual disease rating; conditions: for pest or weed control at 200 µg/mL: Zymoseptoria tritici, in Triticum aestivum, 504 h, read-out: Test G rating (% disease control)
[5] = tested on: Erysiphe graminis f sp. tritici; experiment: Test J: wheat powdery mildew, preventive spray on wheat seedlings, visual disease rating; conditions: for pest or weed control at 200 µg/mL: Blumeria graminis, in Triticum aestivum, 192 h, read-out: Test J rating (% disease control)
[6] = tested on: Septoria nodorum; experiment: Test F: Septoria glume blotch, preventive spray on wheat seedlings, visual disease rating; conditions: for pest or weed control at 200 µg/mL: Parastagonospora nodorum, in Triticum aestivum, 192 h, read-out: Test F rating (% disease control)
[7] = tested on: Puccinia recondita f. sp. tritici; experiment: Test H: wheat leaf rust, curative spray on inoculated wheat seedlings, visual disease rating; conditions: for pest or weed control at 200 µg/mL: 144 h, read-out: Test H rating (% disease control)
[8] = wheat leaf rust, preventive, 100 = 100% disease control, 0 = no control relative to controls
[9] = tomato Botrytis, 100 = 100% disease control, 0 = no control relative to controls
[10] = tomato early blight, 100 = 100% disease control, 0 = no control relative to controls
[11] = wheat leaf blotch, 100 = 100% disease control, 0 = no control relative to controls
[12] = wheat powdery mildew, 100 = 100% disease control, 0 = no control relative to controls
[13] = Septoria glume blotch, 100 = 100% disease control, 0 = no control relative to controls
[14] = wheat leaf rust, curative, 100 = 100% disease control, 0 = no control relative to controls
[15] = wheat leaf rust, preventive spray, 100 = 100% disease control, 0 = no control
[16] = tomato Botrytis, preventive spray, 100 = 100% disease control, 0 = no control
[17] = tomato early blight, preventive spray, 100 = 100% disease control, 0 = no control
[18] = wheat leaf blotch, preventive spray, 100 = 100% disease control, 0 = no control
[19] = wheat powdery mildew, preventive spray, 100 = 100% disease control, 0 = no control
[20] = Septoria glume blotch on wheat, preventive spray, 100 = 100% disease control, 0 = no control
[21] = wheat leaf rust, curative spray, 100 = 100% disease control, 0 = no control

Structure (SMILES)	Test I rating (% disease control) [1, 8] [%]	Test B rating (% disease control) [2, 9] [%]	Test C rating (% disease control) [3, 10] [%]	Test G rating (% disease control) [4, 11] [%]	Test J rating (% disease control) [5, 12] [%]	Test F rating (% disease control) [6, 13] [%]	Test H rating (% disease control) [7, 14] [%]	Test I rating (% disease control) [1, 15] [%]	Test B rating (% disease control) [2, 16] [%]	Test C rating (% disease control) [3, 17] [%]	Test G rating (% disease control) [4, 18] [%]	Test J rating (% disease control) [5, 19] [%]	Test F rating (% disease control) [6, 20] [%]	Test H rating (% disease control) [7, 21] [%]	other results
COc1cc(F)c(-c2c(C)nn(C)c2Oc2ccc(Cl)c(C)c2)c(F)c1 [compound 185]	74	0	0	100	98	0	0	–	–	–	–	–	–	–	–
Cc1nn(C)c(Oc2cc(F)cc(C#N)c2)c1-c1ccc(F)cc1Cl [compound 116]	–	–	–	–	–	–	–	97	100	94	100	99	73	16	–
Cc1nn(C)c(Nc2ccc(F)cc2Cl)c1-c1ccc(C#N)cc1Cl [compound 338]	–	–	–	–	–	–	–	–	–	–	–	–	–	–	Test I disease control rating ([1]; wheat leaf rust, sprayed the day before inoculation, 100 = 100% disease control, 0 = no disease control relative to controls): 100%; Test B disease control rating ([2]; tomato Botrytis, 100 = 100% disease control, 0 = no disease control relative to controls): 100%; Test C disease control rating ([3]; tomato early blight, 100 = 100% disease control, 0 = no disease control relative to controls): 37%; Test G disease control rating ([4]; wheat leaf blotch, sprayed the day before inoculation, 100 = 100% disease control, 0 = no disease control relative to controls): 100%; Test J disease control rating ([5]; wheat powdery mildew, sprayed the day before inoculation, 100 = 100% disease control, 0 = no disease control relative to controls): 99%; Test F disease control rating ([6]; Septoria glume blotch on wheat, 100 = 100% disease control, 0 = no disease control relative to controls): 40%; Test H disease control rating ([7]; wheat leaf rust, sprayed after inoculation, 100 = 100% disease control, 0 = no disease control relative to controls): 8%
COc1cc(F)c(-c2c(C)nn(C)c2Oc2c(F)cc(Cl)cc2F)c(F)c1 [Compound 58, 5-(4-Chloro-2,6-difluorophenoxy)-4-(2,6-difluoro-4-methoxyphenyl)-1,3-dimethyl-1H-pyrazole]	–	–	–	–	–	–	–	–	–	–	–	–	–	–	pest or weed control at 200 µg/mL [1]: 100%; pest or weed control at 200 µg/mL [2]: 98%; pest or weed control at 200 µg/mL [3]: 100%; pest or weed control at 200 µg/mL [4]: 98%; pest or weed control at 200 µg/mL [5]: 100%; pest or weed control at 200 µg/mL [6]: 89%; pest or weed control at 200 µg/mL [7]: 82%
COc1cc(F)c(Nc2c(-c3ccc(F)cc3Cl)c(C)nn2C)c(F)c1 [Compound 17, 4-(2-Chloro-4-fluorophenyl)-N-(2,6-difluoro-4-methoxyphenyl)-1,3-dimethyl-1H-pyrazol-5-amine]	–	–	–	–	–	–	–	–	–	–	–	–	–	–	pest or weed control at 200 µg/mL [1]: 100%; pest or weed control at 200 µg/mL [2]: 100%; pest or weed control at 200 µg/mL [3]: 100%; pest or weed control at 200 µg/mL [4]: 97%; pest or weed control at 200 µg/mL [5]: 100%; pest or weed control at 200 µg/mL [6]: 93%; pest or weed control at 200 µg/mL [7]: 96%
Cc1nn(Cc2ccccc2)c(Oc2c(F)cc([N+](=O)[O-])cc2F)c1-c1c(F)cc(F)cc1F [compound 53]	–	–	–	–	–	–	–	0	0	0	0	0	0	0	–
Cc1nn(C)c(Oc2ccc(Br)c(C#N)c2)c1-c1c(F)cc(F)cc1F [compound 225]	79	65	0	99	98	0	0	–	–	–	–	–	–	–	–
Cc1nn(C)c(Nc2ccc(C#N)cc2F)c1-c1c(F)cccc1F [compound 196]	98	99	94	100	98	73	9	–	–	–	–	–	–	–	–
Cc1nn(C)c(Oc2c(F)cc(C#N)cc2F)c1-c1ccc(Cl)nc1 [compound 86]	–	–	–	–	–	–	–	0	0	0	48	0	0	0	–
Cc1nn(C)c(Nc2cc(C#N)ccc2Cl)c1-c1ccc(F)cc1F [compound 291]	85	99	0	98	43	0	0	–	–	–	–	–	–	–	–
COc1cc(F)c(-c2c(C)nn(C)c2Nc2cc(Cl)c(OC)cc2OC)c(F)c1 [compound 81]	–	–	–	–	–	–	–	27	97	0	0	0	0	0	–
Cc1ccc(Oc2c(-c3c(F)cc(F)cc3F)c(C)nn2C)cc1F [compound 187]	9	33	0	20	13	0	0	–	–	–	–	–	–	–	–
CCn1nc(C)c(-c2ccc(Cl)cc2)c1Nc1c(F)cccc1F [compound 61]	–	–	–	–	–	–	–	38	97	0	99	73	0	0	–
COc1ccc(Nc2c(-c3ccc(Cl)cc3)c(C)nn2C)cc1 [compound 56]	–	–	–	–	–	–	–	28	43	0	99	64	0	0	–
Cc1nn(C)c(Oc2ncc(F)cc2F)c1-c1ccc(F)cc1Cl [compound 189]	99	99	100	100	98	80	99	–	–	–	–	–	–	–	–
